From US11912723B2, “KRAS modulators and uses thereof” (Quanta Therapeutics, Inc., priority 2022, dated 2024) come the findings set out here.

The target in assay [1] is T1, KRAS G12D/RAF1 (Homo sapiens, UniProt P01116, G12D).
T1 construct: KRAS (1-169) proteins were expressed in E. coli at 18° C; His6-MBP (N, cleaved yes); made in house; host or cells: E. coli
Briefly: Protein-protein interaction (PPI) HTRF assay KRAS G12D/RAF1. The format is binding. The note with it: KRAS G12D/RAF1, GppNHp-loaded KRAS; 30 minutes pre-incubation. The method, boiled down:
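Biotinylated GppNHp-loaded RAS (1-169) on streptavidin-d2 acceptor and His-RAF1 RBD (52-131) on anti-His Tb donor, each prepared at 16 nM in pH 7.5 Tris buffer. Compound preincubated with RAS 30 min, then RAF1 added for 1 h at room temperature. IC50 from HTRF 665/615 ratio, normalized to no compound (0%) and untagged RAF1 (100%).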
(In general: Time-resolved FRET reads energy transfer from a long-lived donor to a nearby acceptor.)

Assay [2] concerns AGS (KRAS G12D) cells, phospho-ERK. Kind of assay: pERK In Cell Western (ICW) assay (Method B). The class given is cell-based. The note with it: Homo sapiens, 3 hours. As for the experimental part:
pERK ICW is a high throughput screening assay to evaluate the cellular potency of mutant KRAS small molecule inhibitors. KRAS mutant cell line AGS (KRAS^G12D) were purchased from ATCC and maintained in DMEM and RPMI medium supplemented with 10% fetal bovine serum and Penicillin/Streptomycin.
Cells grown in exponential phase were trypsinized, resuspended in fresh media, and viable cells were counted using a cell counter with Trypan Blue (BioRad TC20). Cells were seeded into 384-well plate (Greiner 781091) at density of 5,000 cells/well for AGS and allowed to grow overnight in a 37° C. CO2 incubator. The next day, compounds were dispensed into wells with a ½ log, 10-point serial dilution and top concentration of 10 μM using Tecan D300e dispenser and incubated for 3 hours in a 37° C. CO2 incubator. Cells were then fixed with paraformaldehyde (Electron Microscopy Sciences, 15710, 4% final concentration) for 30 min, permeabilized with wash buffer (1×PBS+0.1% Triton X-100) for 30 min and blocked with Odyssey blocking buffer (Li—COR 927-70001) for 1 hour, all at room temperature (RT). Phospho-ERK antibody (CST 4370L) was diluted 1:500 in Odyssey blocking+0.2% Tween 20 and incubated with cells overnight at 4° C. The next day, plates were washed 5× with wash buffer, incubated with IRDye 800 CW, Goat anti-Rabbit secondary antibody (Li—COR 926-32211, 1:500) and DRAQ5 (CST 4084L, 1:5,000) diluted in Odyssey blocking+0.2% Tween 20 for 1 hour, washed 5×, and imaged on an Odyssey CLx imaging system.
For data analysis, signal intensities from 800 (phosphor-ERK) and 700 (DRAQ5) channels were extracted, and phospho-ERK signals were normalized to DRAQ5 signals for each well and percent of DMSO control values were computed. Data were then imported into Graphpad Prism to compute half-maximal inhibitory concentrations (IC50) using a 4-parameter variable slope model. Z-factor for each plate was computed from signals derived from wells treated with either DMSO or 5 μM of Trametinib. AGS pERK ICW (Method B) IC50 (uM) values of selected compounds are depicted in Table 2 with compounds having a value 0.001 uM to 0.01 uM as ++++; >0.01 uM to 0.1 uM as +++; >0.1 uM to 1 uM as ++; 1 uM to 10 uM as + and >10 uM as NA.

One may read the pIC50 as the negative decadic logarithm of the IC50, by convention in mol/L. Low readings indicate a high IC50, high ones a low IC50. One may read the IC50 as the midpoint of a concentration-inhibition curve.

pIC50: −log10 of the molar value.

T1 sequence (P01116 1-169 isoform P01116-2 G12D): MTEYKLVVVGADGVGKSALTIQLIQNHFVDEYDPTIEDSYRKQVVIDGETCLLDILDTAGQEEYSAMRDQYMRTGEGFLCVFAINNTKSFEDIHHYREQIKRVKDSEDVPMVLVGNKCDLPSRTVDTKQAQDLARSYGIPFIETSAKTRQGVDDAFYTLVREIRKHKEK

As for `CN(C)C(=O)c1nn2c(c1Cl)CN(c1nc(OC[C@@]34CCCN3C[C@H](F)C4)nc3c1CN(C)[C@@]1(CCc4ccccc41)C3)CCC2` [Compound 53, 3-chloro-5-[(7S)-2-[[(2R,8S)-2-fluoro-1,2,3,5,6,7-hexahydropyrrolizin-8-yl]methoxy]-6-methyl-spiro[5,8-dihydropyrido[4,3-d]pyrimidine-7,1′-indane]-4-yl]-N,N-dimethyl-4,6,7,8-tetrahydropyrazolo[1,5-a][1,4]diazepine-2-carboxamide], in assay [1], the negative-log IC50 (pIC50) was 4.00 to 5.00. Moreover, in assay [2], the IC50 is 0.01 to 0.1 µM.

In assay [1], `Cc1c(C(=O)N(C)C)nn2c1CN(c1nc(OC[C@@]34CCCN3C[C@H](F)C4)nc3c1CO[C@@]1(CCc4c(Cl)cccc41)C3)CCC2` [Compound 42, 5-[(7S)-4′-chloro-2-[[(2R,8S)-2-fluoro-1,2,3,5,6,7-hexahydropyrrolizin-8-yl]methoxy]spiro[5,8-dihydropyrano[4,3-d]pyrimidine-7,1′-indane]-4-yl]-N,N,3-trimethyl-4,6,7,8-tetrahydropyrazolo[1,5-a][1,4]diazepine-2-carboxamide] gave a pIC50 of 4.00 to 5.00. This molecule showed an IC50 in assay [2] of 0.1 to 1 µM.

Regarding `CN(C)C(=O)c1nn2c(c1Cl)CN(c1nc(OC[C@@]34CCCN3C[C@H](F)C4)nc3c1CN(C)[C@@]1(CCc4c(F)cccc41)C3)CCC2` [Compound 65, 3-chloro-5-[(7S)-4′-fluoro-2-[[(2R,8S)-2-fluoro-1,2,3,5,6,7-hexahydropyrrolizin-8-yl]methoxy]-6-methyl-spiro[5,8-dihydropyrido[4,3-d]pyrimidine-7,1′-indane]-4-yl]-N,N-dimethyl-4,6,7,8-tetrahydropyrazolo[1,5-a][1,4]diazepine-2-carboxamide], the pIC50 in assay [1] is 4.00 to 5.00. This molecule gave a half-inhibitory concentration (IC50) in assay [2] of 0.01 to 0.1 µM.

In turn, `CN(C)C(=O)c1nn2c(c1Cl)CN(c1nc(OC[C@@]34CCCN3C[C@H](F)C4)nc3c1CN(C)[C@@]1(CCc4cccc(F)c41)C3)CCC2` [Compound 63, 3-chloro-5-[(7S)-7′-fluoro-2-[[(2R,8S)-2-fluoro-1,2,3,5,6,7-hexahydropyrrolizin-8-yl]methoxy]-6-methyl-spiro[5,8-dihydropyrido[4,3-d]pyrimidine-7,1′-indane]-4-yl]-N,N-dimethyl-4,6,7,8-tetrahydropyrazolo[1,5-a][1,4]diazepine-2-carboxamide] had a pIC50 in assay [1] of 4.00 to 5.00. Further, the IC50 in assay [2] lay within 0.01 to 0.1 µM.

`O=C(c1nn2c(c1Cl)CN(c1nc(OC[C@@]34CCCN3C[C@H](F)C4)nc3c1CO[C@@]1(CCc4c(Cl)cccc41)C3)CCC2)N1CCOCC1` [Compound 45, [3-chloro-5-[(7S)-4′-chloro-2-[[(2R,8S)-2-fluoro-1,2,3,5,6,7-hexahydropyrrolizin-8-yl]methoxy]spiro[5,8-dihydropyrano[4,3-d]pyrimidine-7,1′-indane]-4-yl]-4,6,7,8-tetrahydropyrazolo[1,5-a][1,4]diazepin-2-yl]-morpholino-methanone] showed a pIC50 in assay [1] of 4.00 to 5.00. This molecule yielded an IC50 in assay [2] of 0.1 to 1 µM.

As to `CN(C)C(=O)c1nn2c(c1Cl)CN(c1nc(OC[C@@]34CCCN3C[C@H](F)C4)nc3c1CN(C)[C@@]1(CCc4c(F)ccc(F)c41)C3)CCC2` [Compound 61, 3-chloro-5-[(7S)-4′,7′-difluoro-2-[[(2R,8S)-2-fluoro-1,2,3,5,6,7-hexahydropyrrolizin-8-yl]methoxy]-6-methyl-spiro[5,8-dihydropyrido[4,3-d]pyrimidine-7,1′-indane]-4-yl]-N,N-dimethyl-4,6,7,8-tetrahydropyrazolo[1,5-a][1,4]diazepine-2-carboxamide], the pIC50 in assay [1] was 4.00 to 5.00. This molecule also yielded an IC50 in assay [2] of 0.01 to 0.1 µM.

As to `Cc1nc(-c2nn3c(c2Cl)CN(c2nc(OC[C@@]45CCCN4C[C@H](F)C5)nc4c2CN(C)[C@@]2(CCCc5ccccc52)C4)CCC3)no1` [Compound 87, 3-[3-chloro-5-[(7S)-2-[[(2R,8S)-2-fluoro-1,2,3,5,6,7-hexahydropyrrolizin-8-yl]methoxy]-6-methyl-spiro[5,8-dihydropyrido[4,3-d]pyrimidine-7,1′-tetralin]-4-yl]-4,6,7,8-tetrahydropyrazolo[1,5-a][1,4]diazepin-2-yl]-5-methyl-1,2,4-oxadiazole], the pIC50 in assay [1] is 4.00 to 5.00. Further, the IC50 in assay [2] lay in the range of 0.1 to 1 µM.

For the molecule `O=C(c1nn2c(c1Cl)CN(c1nc(OC[C@@]34CCCN3C[C@H](F)C4)nc3c1CO[C@@]1(CCc4c(Cl)cccc41)C3)CCC2)N1CCNCC1` [Compound 49, [3-chloro-5-[(7S)-4′-chloro-2-[[(2R,8S)-2-fluoro-1,2,3,5,6,7-hexahydropyrrolizin-8-yl]methoxy]spiro[5,8-dihydropyrano[4,3-d]pyrimidine-7,1′-indane]-4-yl]-4,6,7,8-tetrahydropyrazolo[1,5-a][1,4]diazepin-2-yl]-piperazin-1-yl-methanone], the negative logarithm of the IC50 (pIC50) in assay [1] was 4.00 to 5.00. Further, in assay [2], the IC50 was 0.1 to 1 µM.

On to `F[C@H]1CN2CCC[C@@]2(COc2nc3c(c(N4C[C@H]5CC[C@@H](C4)N5)n2)COC2(CCCc4c(Br)cccc42)C3)C1` (stereo partly drawn) [Compound 10, 5′-bromo-4-(3,8-diazabicyclo[3.2.1]octan-3-yl)-2-[[(2R,8S)-2-fluoro-1,2,3,5,6,7-hexahydropyrrolizin-8-yl]methoxy]spiro[5,8-dihydropyrano[4,3-d]pyrimidine-7,1′-tetralin]], for which the pIC50 in assay [1] is under 4.00. The IC50 in assay [2] was over 10 µM.

As to `CN(C)C(=O)c1nn2c(c1Cl)CN(c1nc(OC[C@@]34CCCN3C[C@H](F)C4)nc3c1CN(C)[C@@]1(CCc4cccc(O)c41)C3)CCC2` [Compound 96, 3-chloro-5-[(7S)-2-[[(2R,8S)-2-fluoro-1,2,3,5,6,7-hexahydropyrrolizin-8-yl]methoxy]-7′-hydroxy-6-methyl-spiro[5,8-dihydropyrido[4,3-d]pyrimidine-7,1′-indane]-4-yl]-N,N-dimethyl-4,6,7,8-tetrahydropyrazolo[1,5-a][1,4]diazepine-2-carboxamide], the pIC50 in assay [1] is 4.00 to 5.00. This molecule also came in with an IC50 in assay [2] of 0.01 to 0.1 µM.

For the molecule `CN(C)CC1(COc2nc3c(c(N4CCCn5nc(C(=O)N(C)C)c(Cl)c5C4)n2)CN(C)[C@@]2(CCCc4ccccc42)C3)CC1(F)F` (stereo partly drawn) [Compound 97, 3-chloro-5-[(7S)-2-[[1-[(dimethylamino)methyl]-2,2-difluoro-cyclopropyl]methoxy]-6-methyl-spiro[5,8-dihydropyrido[4,3-d]pyrimidine-7,1′-tetralin]-4-yl]-N,N-dimethyl-4,6,7,8-tetrahydropyrazolo[1,5-a][1,4]diazepine-2-carboxamide], the pIC50 in assay [1] is under 4.00. In addition, the concentration for half-maximal inhibition (IC50) in assay [2] was in the range of 1 to 10 µM.

For `F[C@H]1CN2CCC[C@@]2(COc2nc3c(c(N4CCCCCC4)n2)COC2(CCc4c(Cl)cccc42)C3)C1` (stereo partly drawn) [Compound 1, 4′-(azepan-1-yl)-4-chloro-2′-(((2R,7aS)-2-fluorotetrahydro-1H-pyrrolizin-7a(5H)-yl)methoxy)-2,3,5′,8′-tetrahydrospiro[indene-1,7′-pyrano[4,3-d]pyrimidine]], the negative-log IC50 (pIC50) in assay [1] is under 4.00. The same molecule returned an IC50 in assay [2] of over 10 µM.

The molecule `CN(C)C(=O)c1cc2n(n1)CCCN(c1nc(OC[C@@]34CCCN3C[C@H](F)C4)nc3c1CN(C)[C@@]1(CCCc4ccc(O)cc41)C3)C2` [Compound 39A, 5-[(7S)-2-[[(2R,8S)-2-fluoro-1,2,3,5,6,7-hexahydropyrrolizin-8-yl]methoxy]-7′-hydroxy-6-methyl-spiro[5,8-dihydropyrido[4,3-d]pyrimidine-7,1′-tetralin]-4-yl]-N,N-dimethyl-4,6,7,8-tetrahydropyrazolo[1,5-a][1,4]diazepine-2-carboxamide] showed a pIC50 in assay [1] of 4.00 to 5.00. Besides, in assay [2], the IC50 was in the range of 0.1 to 1 µM.

In the case of `F[C@H]1CN2CCC[C@@]2(COc2nc3c(c(N4CCC=CCC4)n2)COC2(CCc4c(Cl)cccc42)C3)C1` (stereo partly drawn) [Compound 18, 4′-chloro-2-[[(2R,8S)-2-fluoro-1,2,3,5,6,7-hexahydropyrrolizin-8-yl]methoxy]-4-(2,3,6,7-tetrahydroazepin-1-yl)spiro[5,8-dihydropyrano[4,3-d]pyrimidine-7,1′-indane]], the negative logarithm of the IC50 (pIC50) in assay [1] is 4.00 to 5.00. Moreover, the IC50 in assay [2] is over 10 µM.
